From patent publication US9376442B2, “Methylpyrrolopyrimidinecarboxamides” (Takeda GmbH, priority 2009, dated 2016) come the findings set out here.

One assay deals with T1, PDE5A1 (Homo sapiens, UniProt O76074).
T1 construct: from tissue; host or cells: human platelets from fresh donor blood (10,000 x g supernatant of sonicated lysate)
As to the kind of experiment: Inhibition of type 5 phosphodiesterase (PDE5) activity, modified SPA test with human platelet lysate. The class given is biochemical. As to conditions: 0.5 μM cGMP, read-out: PDE5A1 inhibitory values [measured as −log IC50 (mol/l)] (converted). The gist of the method: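 Scintillation proximity assay with [3H]cGMP tracer at 0.5 μM total cGMP, stopped after 15 min with beads containing IBMX. PDE3 and PDE2 activities suppressed with motapizone (1 μM) and a PDE2 inhibitor (10 nM). Human platelet supernatant served as the enzyme, with compound preincubated 5 min at 37° C; IC50 values from concentration-effect curves.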

The next assay has as its target T2, PDE4B1 (Homo sapiens, UniProt Q07343).
T2 construct: made in house; host or cells: SF21 insect cells (baculovirus; pCRBac vector), 1000 x g supernatant of homogenate
Put plainly: Inhibition of type 4 phosphodiesterase (PDE4) activity, modified SPA test with recombinant PDE4B1 expressed in SF21 insect cells. Particulars: recombinant PDE4B1, 0.5 μM cAMP, read-out: PDE4B1 inhibitory values [measured as −log IC50 (mol/l)] (converted). It counts as biochemical. The gist of the method: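 Modified [3H]cAMP SPA using 1000×g supernatant of SF21 cells expressing recombinant human PDE4B1, in 20 mM Tris pH 7.4, 0.1 mg/ml BSA, 5 mM Mg2+, 0.5 μM cAMP. After 5 min preincubation at 37 °C, 15 min reaction, stopped with SPA beads plus IBMX; IC50 by non-linear regression.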

T2 sequence (Q07343 whole entry): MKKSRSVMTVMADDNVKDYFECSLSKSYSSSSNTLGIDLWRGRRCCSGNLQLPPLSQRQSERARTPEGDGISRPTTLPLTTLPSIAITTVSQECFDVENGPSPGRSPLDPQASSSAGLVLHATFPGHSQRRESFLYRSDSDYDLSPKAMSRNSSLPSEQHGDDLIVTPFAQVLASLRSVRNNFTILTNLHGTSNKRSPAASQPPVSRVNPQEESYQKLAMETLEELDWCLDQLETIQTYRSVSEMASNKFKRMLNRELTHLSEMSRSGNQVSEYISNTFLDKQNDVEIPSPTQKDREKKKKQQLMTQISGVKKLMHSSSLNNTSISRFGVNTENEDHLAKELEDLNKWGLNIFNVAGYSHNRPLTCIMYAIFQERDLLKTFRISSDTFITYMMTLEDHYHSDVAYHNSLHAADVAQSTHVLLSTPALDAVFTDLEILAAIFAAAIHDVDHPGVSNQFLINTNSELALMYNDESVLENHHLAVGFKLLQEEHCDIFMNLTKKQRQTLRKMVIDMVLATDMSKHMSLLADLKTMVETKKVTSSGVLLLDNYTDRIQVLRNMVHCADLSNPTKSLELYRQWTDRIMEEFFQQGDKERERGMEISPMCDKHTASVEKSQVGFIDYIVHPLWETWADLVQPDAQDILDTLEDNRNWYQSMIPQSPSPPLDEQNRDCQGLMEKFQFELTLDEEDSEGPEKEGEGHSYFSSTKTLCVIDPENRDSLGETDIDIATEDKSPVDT

Regarding `Cc1ccc(OCC2CC2)c(-c2ncnc3c(C(=O)N[C@H]4CC[C@@H](NC(=O)CO)CC4)c(C)[nH]c23)c1` [Example F55, 4-[2-(Cyclopropylmethoxy)-5-methylphenyl]-N-{cis-4-[(hydroxyacetyl)amino]cyclohexyl}-6-methyl-5H-pyrrolo[3,2-d]pyrimidine-7-carboxamide], the IC50 was under 1 nM on PDE5A1 and under 100 nM on PDE4B1.
Regarding `Cc1ccc(OCC2CC2)c(-c2ncnc3c(C(=O)N[C@H]4CC[C@@H](NC(=O)[C@H](C)O)CC4)c(C)[nH]c23)c1` [Example F56, 4-[2-(Cyclopropylmethoxy)-5-methylphenyl]-N-(cis-4-{[(2S)-2-hydroxypropanoyl]amino}cyclohexyl)-6-methyl-5H-pyrrolo[3,2-d]pyrimidine-7-carboxamide], the figures for the IC50 at PDE5A1 and at PDE4B1 were under 1 nM and under 100 nM, respectively.
Take `Cc1[nH]c2c(-c3cc(C(F)(F)F)ccc3OCC3CC3)ncnc2c1C(=O)NC1CCN(C(=O)CO)CC1` [Example F57, 4-[2-(Cyclopropylmethoxy)-5-(trifluoromethyl)phenyl]-N-[1-(hydroxyacetyl)piperidin-4-yl]-6-methyl-5H-pyrrolo[3,2-d]pyrimidine-7-carboxamide]: the IC50 was under 1 nM at PDE5A1 and under 100 nM at PDE4B1.
On to `Cc1[nH]c2c(-c3cc(C(F)(F)F)ccc3OCC3CC3)ncnc2c1C(=O)NC1CCN(C(=O)[C@H](C)O)CC1` [Example F58, 4-[2-(Cyclopropylmethoxy)-5-(trifluoromethyl)phenyl]-N-{1-[(2S)-2-hydroxypropanoyl]piperidin-4-yl}-6-methyl-5H-pyrrolo[3,2-d]pyrimidine-7-carboxamide], for which the IC50 on PDE5A1 is under 1 nM; at PDE4B1, 100 to 1000 nM.
Take `Cc1[nH]c2c(-c3cc(C(F)(F)F)ccc3OCC3CC3)ncnc2c1C(=O)N[C@H]1CC[C@H](NC(=O)CO)CC1` [Example F59, 4-[2-(Cyclopropylmethoxy)-5-(trifluoromethyl)phenyl]-N-{trans-4-[(hydroxyacetyl)amino]cyclohexyl}-6-methyl-5H-pyrrolo[3,2-d]pyrimidine-7-carboxamide]: the IC50 at PDE5A1 is under 1 nM; at PDE4B1 it was under 100 nM.
For the compound `Cc1[nH]c2c(-c3cc(C(F)(F)F)ccc3OCC3CC3)ncnc2c1C(=O)N[C@H]1CC[C@H](NC(=O)[C@H](C)O)CC1` [Example F60, 4-[2-(Cyclopropylmethoxy)-5-(trifluoromethyl)phenyl]-N-(trans-4-{[(2S)-2-hydroxypropanoyl]amino}cyclohexyl)-6-methyl-5H-pyrrolo[3,2-d]pyrimidine-7-carboxamide], the IC50 at PDE5A1 was under 1 nM; at PDE4B1, under 100 nM.
For `Cc1[nH]c2c(-c3cc(C(F)(F)F)ccc3OCC3CC3)ncnc2c1C(=O)N[C@H]1CC[C@@H](NC(=O)CO)CC1` [Example F61, 4-[2-(Cyclopropylmethoxy)-5-(trifluoromethyl)phenyl]-N-{cis-4-[(hydroxyacetyl)amino]cyclohexyl}-6-methyl-5H-pyrrolo[3,2-d]pyrimidine-7-carboxamide] the same measures were under 1 nM and under 100 nM.
For `Cc1[nH]c2c(-c3cc(C(F)(F)F)ccc3OCC3CC3)ncnc2c1C(=O)N[C@H]1CC[C@@H](NC(=O)[C@H](C)O)CC1` [Example F62, 4-[2-(Cyclopropylmethoxy)-5-(trifluoromethyl)phenyl]-N-(cis-4-{[(2S)-2-hydroxypropanoyl]amino}cyclohexyl)-6-methyl-5H-pyrrolo[3,2-d]pyrimidine-7-carboxamide] the same measures were under 1 nM and under 100 nM.
For `CCc1ccc(OCC2CC2)c(-c2ncnc3c(C(=O)N[C@H]4CC[C@H](NC(=O)CO)CC4)c(C)[nH]c23)c1` [Example F93, 4-[2-(Cyclopropylmethoxy)-5-ethylphenyl]-N-{trans-4-[(hydroxyacetyl)amino]cyclohexyl}-6-methyl-5H-pyrrolo[3,2-d]pyrimidine-7-carboxamide] the same measures were under 1 nM and under 100 nM.
Consider `CCc1ccc(OCC2CC2)c(-c2ncnc3c(C(=O)N[C@H]4CC[C@H](NC(=O)[C@H](C)O)CC4)c(C)[nH]c23)c1` [Example F94, 4-[2-(Cyclopropylmethoxy)-5-ethylphenyl]-N-(trans-4-{[(2S)-2-hydroxypropanoyl]amino}cyclohexyl)-6-methyl-5H-pyrrolo[3,2-d]pyrimidine-7-carboxamide], for which the results for the IC50 on PDE5A1 and on PDE4B1 were under 1 nM and under 100 nM, respectively.
Turning to `CCc1ccc(OCC2CC2)c(-c2ncnc3c(C(=O)N[C@H]4CC[C@@H](NC(=O)CO)CC4)c(C)[nH]c23)c1` [Example F95, 4-[2-(Cyclopropylmethoxy)-5-ethylphenyl]-N-{cis-4-[(hydroxyacetyl)amino]cyclohexyl}-6-methyl-5H-pyrrolo[3,2-d]pyrimidine-7-carboxamide], the figures for the IC50 at PDE5A1 and on PDE4B1 were under 1 nM and under 100 nM, respectively.
In the case of `CCc1ccc(OCC2CC2)c(-c2ncnc3c(C(=O)NC4CCC(NC(=O)C(C)O)CC4)c(C)[nH]c23)c1` (stereo not drawn) [Example F96, 4-[2-(Cyclopropylmethoxy)-5-ethylphenyl]-N-(cis-4-{[(25)-2-hydroxypropanoyl]amino}cyclohexyl)-6-methyl-5H-pyrrolo[3,2-d]pyrimidine-7-carboxamide], the IC50 on PDE5A1 was under 1 nM; at PDE4B1 it was under 100 nM.
Regarding `Cc1[nH]c2c(-c3cc(C(C)C)ccc3OCC3CC3)ncnc2c1C(=O)NC1CCN(C(=O)[C@H](C)O)CC1` [Example F99, 4-[2-(Cyclopropylmethoxy)-5-(propan-2-yl)phenyl]-N-{1-[(2S)-2-hydroxypropanoyl]piperidin-4-yl}-6-methyl-5H-pyrrolo[3,2-d]pyrimidine-7-carboxamide], the IC50 at PDE5A1 is under 1 nM; at PDE4B1 it was 100 to 1000 nM.
For `Cc1[nH]c2c(-c3cc(C(C)C)ccc3OCC3CC3)ncnc2c1C(=O)N[C@H]1CC[C@H](NC(=O)[C@H](C)O)CC1` [Example F100, 4-[2-(Cyclopropylmethoxy)-5-(propan-2-yl)phenyl]-N-(trans-4-{[(2S)-2-hydroxypropanoyl]amino}cyclohexyl)-6-methyl-5H-pyrrolo[3,2-d]pyrimidine-7-carboxamide], the IC50 at PDE5A1 was under 1 nM; at PDE4B1, 100 to 1000 nM.
Consider `Cc1[nH]c2c(-c3cc(C(C)C)ccc3OCC3CC3)ncnc2c1C(=O)N[C@H]1CC[C@@H](NC(=O)[C@H](C)O)CC1` [Example F101, 4-[2-(Cyclopropylmethoxy)-5-(propan-2-yl)phenyl]-N-(cis-4-{[(2S)-2-hydroxypropanoyl]amino}cyclohexyl)-6-methyl-5H-pyrrolo[3,2-d]pyrimidine-7-carboxamide], for which the IC50 is under 1 nM at PDE5A1 and 100 to 1000 nM on PDE4B1.
With `Cc1ccc(OCC2CC2)c(-c2nc(C)nc3c(C(=O)NC4CCN(C(=O)CO)CC4)c(C)[nH]c23)c1` [Example F106, 4-[2-(Cyclopropylmethoxy)-5-methylphenyl]-N-[1-(hydroxyacetyl)piperidin-4-yl]-2,6-dimethyl-5H-pyrrolo[3,2-d]pyrimidine-7-carboxamide], the IC50 is under 1 nM on PDE5A1 and 100 to 1000 nM at PDE4B1.
Regarding `CC(=O)N1CCC(NC(=O)c2c(C)[nH]c3c(-c4cc(C(F)F)ccc4OCC4CC4)ncnc23)CC1` [Example P1, N-(1-Acetylpiperidin-4-yl)-4-[2-(cyclopropylmethoxy)-5-(difluoromethyl)phenyl]-6-methyl-5H-pyrrolo[3,2-d]pyrimidine-7-carboxamide], the IC50 was under 1 nM at PDE5A1 and under 100 nM at PDE4B1.
For the compound `CCC(=O)N1CCC(NC(=O)c2c(C)[nH]c3c(-c4cc(C(F)F)ccc4OCC4CC4)ncnc23)CC1` [Example P2, 4-[2-(Cyclopropylmethoxy)-5-(difluoromethyl)phenyl]-6-methyl-N-(1-propanoylpiperidin-4-yl)-5H-pyrrolo[3,2-d]pyrimidine-7-carboxamide], the values for the IC50 on PDE5A1 and on PDE4B1 were under 1 nM and under 100 nM, respectively.
For `COCC(=O)N1CCC(NC(=O)c2c(C)[nH]c3c(-c4cc(C(F)F)ccc4OCC4CC4)ncnc23)CC1` [Example P3, 4-[2-(Cyclopropylmethoxy)-5-(difluoromethyl)phenyl]-N-[1-(methoxyacetyl)piperidin-4-yl]-6-methyl-5H-pyrrolo[3,2-d]pyrimidine-7-carboxamide] the same measures were 1 to 10 nM and under 100 nM.
`CC(=O)N[C@H]1CC[C@H](NC(=O)c2c(C)[nH]c3c(-c4cc(C(F)F)ccc4OCC4CC4)ncnc23)CC1` [Example P6, N-[trans-4-(Acetylamino)cyclohexyl]-4-[2-(cyclopropylmethoxy)-5-(difluoromethyl)phenyl]-6-methyl-5H-pyrrolo[3,2-d]pyrimidine-7-carboxamide]: the IC50 at PDE5A1 was under 1 nM; on PDE4B1, under 100 nM.
Turning to `CCC(=O)N[C@H]1CC[C@H](NC(=O)c2c(C)[nH]c3c(-c4cc(C(F)F)ccc4OCC4CC4)ncnc23)CC1` [Example P7, 4-[2-(Cyclopropylmethoxy)-5-(difluoromethyl)phenyl]-6-methyl-N-[trans-4-(propanoylamino)cyclohexyl]-5^H-pyrrolo[3,2-d]pyrimidine-7-carboxamide], the IC50 at PDE5A1 was under 1 nM; at PDE4B1 it was under 100 nM.
For the compound `COCC(=O)N[C@H]1CC[C@H](NC(=O)c2c(C)[nH]c3c(-c4cc(C(F)F)ccc4OCC4CC4)ncnc23)CC1` [Example P8, 4-[2-(Cyclopropylmethoxy)-5-(difluoromethyl)phenyl]-N-{trans-4-[(methoxyacetyl)amino]cyclohexyl}-6-methyl-5H-pyrrolo[3,2-d]pyrimidine-7-carboxamide], the IC50 on PDE5A1 was under 1 nM; at PDE4B1, under 100 nM.
